Measurements as given in patent US20110135756A1, “COMPOSITIONS AND METHODS FOR PROTECTING SENSORY HAIR CELLS” (University of Washington, priority 2009, published 2011).
“Also recorded” adds a separate entry of the source. Counter-ions that a name gives are not always drawn.

Legend:
zebrafish hair cells = assay: Quinoline ring derivatives: pretreatment protection against neomycin-induced hair cell death (FIG. 1); type: in vivo; conditions: 5 dpf zebrafish; 0, 10, 50, 100 or 200 μM pretreatment; 200 μM neomycin
Experimental: (§1) FIG. 1 is a bar graph depicting results of cinchonine pretreatment, which protects against neomycin-induced hair cell death. Five day post-fertilization zebrafish were pretreated with 0, 10, 50, 100 or 200 μM cinchonine prior to treatment with 200 μM neomycin. […] The negative control represents fish not exposed to neomycin. Data bars are mean hair cell survival from 8 to 10 fish. Error bars represent standard deviation from the mean.
as §1, with “Five” for “FIG. 1 is a bar graph depicting results of cinchonine pretreatment, which protects against neomycin-induced hair cell death. Five”

[1] = test system: hearing (threshold shift); type: in vivo, rat; conditions: rats; protectant 25 mg/kg intraperitoneally; kanamycin 25 mg/kg per day i.p. for two weeks
Experimental: Rats were injected with 25 mg/kg per day (intraperitoneal) kanamycin for two weeks, a treatment that induces a hearing loss similar to that observed in humans following aminoglycoside treatment. At higher frequencies, the hearing loss observed in rats treated with kanamycin (without protectant) is a threshold shift of 50 dB and at mid-frequencies a hearing loss observed is 30-40 dB threshold shift.
The PROTO1 was administered intraperitoneally at a dose of 25 mg/kg. The PROTO1 was given as a 3.33 mg/mL solution in 1:1:2:16 (DMSO:Cremophor EL:EtOH:PBS).

sensory hair cells = assay: Zebrafish model of protection of sensory hair cells against ototoxins (PROTO1); conditions: in vivo
[2] = test system: hair cells of the zebrafish lateral line; assay: Dose response testing: protection of zebrafish lateral line hair cells against toxin-induced hair cell death (DASPEI neuromast scoring); type: in vivo, zebrafish (Danio rerio)
Experimental: Animal care. Wildtype Larval zebrafish (Danio rerio) were produced via group matings of adult fish. […] Beginning at 4 days post-fertilization (dpf), fish were fed live paramecia or rotifers daily. Experiments were performed using 5 or 6 dpf larvae. The University of Washington Animal Care and Use Committee approved of the animal procedures described here.
Dose response testing. Drug screen “hits” were tested to determine minimum concentrations of drug and maximum concentrations of toxin that confer protection against hair cell death. All “hits” were tested against all four hair cell toxins regardless of whether a given “hit” was positive with a specific toxin in the screen. 5 or 6 dpf larvae were transferred to 6-well Corning Netwell baskets and placed in 6-well plates (Fisher Scientific) in EM with approximately 10 fish per basket. This allowed for easy transfer between treatment media. Drug and toxins were made up in 7 ml of EM. Larvae were pretreated for one hour in a dose of protective drug followed by cotreatment in protective drug and hair cell toxin. […] Then larvae were rinsed 4× and anesthetized with MS222. Larvae were transferred to glass depression slides and viewed on a Leica epifluorescent microscope with a DASPEI filter (Chroma Technologies, Brattleboro Vt.). […] To find minimum protective concentrations, doses of protective drug tested were 0, 0.5, 1, 5, 10, 50, 100 uM and toxin dose was held at the concentrations used for screening (see above). For those doses of putative protectants that killed the larvae, further doses were tested to determine if intermediate doses were optimal. For dose response curves finding maximum toxin dose at which protection occurs, dose of protective drug was held at previously determined optimal dose and toxin dose was varied as follows: […]

[3] = test system: hair cells of the zebrafish lateral line; assay: Pretreatment experiments (1 hr, 15 min or no pretreatment before 200 uM neomycin); type: in vivo, zebrafish (Danio rerio); conditions: for Pre-treatment time prior to aminoglycoside exposure giving greater effectiveness: zebrafish, in vivo
Text: Pretreatment experiments. […] Controls were mock treated or treated with neomycin only.

[4] = test system: gentamicin entry into hair cells; assay: Gentamicin-conjugated Texas Red (GTTR) uptake imaging; type: in vivo, zebrafish (Danio rerio); conditions: protective drug at optimal dose; 50 uM GTTR for 3 min
Text: Gentamicin-conjugated Texas Red Imaging. […] Fish were anesthetized with MS222 and transferred to double wholemount slides for imaging using fluorescence microscopy on an automated stage (Marianas imaging system, Intelligent Imaging Innovations) with a Zeiss Axiovert 200M inverted microscope (Carl Zeiss). Each image contained a z-stack encompassing 2-3 neuromasts as determined by viewing under brightfield illumination. Each fish was imaged once and 5 fish were imaged for each treatment group. Control fish were treated with EM only (mock-treated) or with 3 min of 50 uM GTTR only.
GTTR Image analysis. […] Then 2-3 neuromasts per image were traced and converted to a mask field “Mask 1”. […] Then Boolean addition was used to create the neuromast mask (NM) by taking “Mask1” AND thresholded segment and the background mask (BG) by taking “Mask2” AND thresholded segment. Mean intensity, standard deviation of intensity, sum intensity and volume in voxels were calculated for NM and BG. To create an index of intensity, NM/BG was calculated for each fish and values for mock-treated fish were subtracted and multiplied by 100 to obtain “% intensity above background”.

bacteria = assay: Antibiotic efficacy of the ototoxic aminoglycoside in presence of protective drug; type: cell-based
[5] = test system: cultured lung cancer cells; assay: Inhibition of growth of cultured lung cancer cells in presence of protective drug (in vitro); type: cell-based; conditions: in vitro testing
[6] = test system: hair cells of the zebrafish lateral line; assay: Screen of BIOMOL FDA Approved Drug Library for protection against toxin-induced hair cell death (YO-PRO1); type: in vivo, zebrafish (Danio rerio); conditions: 4 μg/ml library compound, 1 hr preincubation
Experimental: Drug Library. BIOMOL's FDA Approved Drug Library (Enzo Life Sciences Inc., Plymouth Meeting, Pa., USA (formerly BIOMOL International, L.P.)) was used to screen zebrafish larvae for compounds that protect against toxin-induced hair cell death. The library consists of 640 drugs dissolved at 2 mg/ml in dimethyl sulfoxide (DMSO). The drugs were aliquoted into eight 96-well plates with 80 drugs per plate and stored at 4 C during initial screening and re-testing.
Screening. Larvae were prelabeled with 2 μM YO-PRO1 (Invitrogen, Carlsbad, Calif. USA; Y3603) in embryo medium for 30 min and then rinsed three times. […]
Concentrations and incubation times were chosen based on previously determined dose-response in order to achieve maximal hair cell death at the lowest concentration of toxin (Ou et al. 2007; Owens et al. 2009). […] After incubation in library drug and hair cell toxin, larvae were anesthetized with 0.001% MS222 (3-aminobenzoic acid ethyl ester methanesulfonate; Sigma) and immediately viewed using fluorescence microscopy on an automated stage (Marianas imaging system, Intelligent Imaging Innovations) using a Zeiss Axiovert 200M inverted microscope (Carl Zeiss). Fish were scored on a scale from 0 to 2 with 2 corresponding to mostly healthy hair cells and a 0 corresponding to mostly dead hair cells. […]

[7] = test system: hearing and vestibular function; conditions: human, in vivo; cited from earlier work

| SMILES | Protection of sensory hair cells against gentamicin ([2]; zebrafish, in vivo) | Uptake (whether gentamicin is able to enter cells in the presence of protective drug) [4] | Effect on antibiotic efficacy of the ototoxic aminoglycoside (bacteria) | also measured |
| --- | --- | --- | --- | --- |
| C=C[C@H]1C[N@@]2CC[C@H]1C[C@@H]2[C@@H](O)c1ccnc2ccccc12 [cinchonine] | – | – | – | Hair cell survival after neomycin with cinchonine pretreatment (zebrafish hair cells): increasing hair cell survival |
| CCN1CCc2c(sc(NC(=O)Nc3ccc(Cl)cc3)c2C(N)=O)C1 [PROTO1, 2-({[(4-chlorophenyl)amino]carbonyl}amino)-6-ethyl-4,5,6,7-tetrahydrothieno[2,3-c]pyridine-3-carboxamide] | – | – | – | Protection against kanamycin-induced hearing loss [1]: significant protection against hearing loss; Protection of sensory hair cells against ototoxins in the Zebrafish model (sensory hair cells): shown to protect |
| CC(COc1ccccc1)N(CCCl)Cc1ccccc1 (stereo not drawn) [Phenoxybenzamine HCl] | protect against gentamicin | attenuate | without diminishing the antibiotic efficacy | Pre-treatment time prior to aminoglycoside exposure giving greater effectiveness [3]: 15 min |
| CC/C(=C(\c1ccccc1)c1ccc(OCCN(C)C)cc1)c1ccccc1 [Tamoxifen citrate] | – | no block | without diminishing the antibiotic efficacy | – |
| Fc1ccc([C@@H]2CCNC[C@H]2COc2ccc3c(c2)OCO3)cc1 [Paroxetine HCl] | protect against gentamicin | attenuate | without diminishing the antibiotic efficacy | Protection of sensory hair cells against cisplatin ([2]; zebrafish, in vivo): protective against cisplatin; Effect on inhibition of growth of cultured lung cancer cells [5]: alters inhibition of growth of some cultured lung cancer cells at some doses and not at others |
| O=C(c1ccc(OCCN2CCCCC2)cc1)c1c(-c2ccc(O)cc2)sc2cc(O)ccc12 [Raloxifene HCl] | protect against gentamicin | block | without diminishing the antibiotic efficacy | – |
| CNCCC(Oc1ccc(C(F)(F)F)cc1)c1ccccc1 (stereo not drawn) [Fluoxetine HCl] | – | no block | without diminishing the antibiotic efficacy | – |
| CN(C)C(=O)C(CCN1CCC(O)(c2ccc(Cl)cc2)CC1)(c1ccccc1)c1ccccc1 [Loperamide] | protect against gentamicin | no block | without diminishing the antibiotic efficacy | Protection of sensory hair cells against kanamycin ([2]; zebrafish, in vivo): protect against kanamycin; Protection in library screen against aminoglycosides (neomycin, gentamicin, kanamycin) and/or cisplatin [6]: protects against all four toxins |
| N.N.[Cl][Pt][Cl] [cisplatin] | – | – | – | High frequency hearing loss (>8 kHZ) incidence [7]: ≤ 90% |
| NC(=NCc1ccccc1)NC(=O)c1nc(Cl)c(N)nc1N [Benzamil] | – | attenuate | – | – |
| CC(CCc1ccc(O)cc1)NCC(O)c1ccc(O)cc1 (stereo not drawn) [Ractopamine] | protect against gentamicin; also recorded: protected | block | without diminishing the antibiotic efficacy | Protection of sensory hair cells against kanamycin ([2]; zebrafish, in vivo): protect against kanamycin; also recorded: protected; Protection of sensory hair cells from neomycin ([2]; zebrafish, in vivo): protected |
| CSc1ccc2c(c1)C(N1CCN(C)CC1)Cc1ccccc1S2.O=C(O)/C=C\C(=O)O (stereo not drawn) [Methiothepin maleate] | protect against gentamicin | no block | without diminishing the antibiotic efficacy | Drug dose (optimal dose that confers protection against toxins) ([2]; 5 or 6 dpf larvae, toxin dose held at screening concentration): 10 µM; Pre-treat (necessary pretreatment time before toxin exposure for effective protection) ([3]; followed by 1 hr cotreatment with 200 uM neomycin): 60 min; Pre-treatment time prior to aminoglycoside exposure giving greater effectiveness [3]: 60 min |
| CCN(CC)CCCC(C)Nc1ccnc2cc(Cl)ccc12 (stereo not drawn) [Chloroquine diphosphate] | protect against gentamicin | – | without diminishing the antibiotic efficacy | – |
| O=C1NCN(c2ccccc2)C12CCN(CCCC(c1ccc(F)cc1)c1ccc(F)cc1)CC2 [Fluspirilene] | – | no block | without diminishing the antibiotic efficacy | – |
| CN(C)CCOc1ccc(/C(=C(/CCCl)c2ccccc2)c2ccccc2)cc1 [Toremifene citrate] | – | – | without diminishing the antibiotic efficacy | – |
